Measured values taken from patent publication US7417156B2, “Orally active, antimalarial, anticancer, artemisinin-derived trioxane dimers” (Johns Hopkins University, priority 2002, dated 2008).

How the values were obtained:
HS 578T = assay: NCI 60 cell line panel screen (SRB); type: cell-based, human
A549/ATCC = assay: NCI 60 cell line panel screen (SRB); type: cell-based, human
M14 = assay: NCI 60 cell line panel screen (SRB); type: cell-based, human
KM12 = assay: NCI 60 cell line panel screen (SRB); type: cell-based, human
TK-10 = assay: NCI 60 cell line panel screen (SRB); type: cell-based, human
UO-31 = assay: NCI 60 cell line panel screen (SRB); type: cell-based, human
COLO 205 = assay: NCI 60 cell line panel screen (SRB); type: cell-based, human
U251 = assay: NCI 60 cell line panel screen (SRB); type: cell-based, human
OVCAR-5 = assay: NCI 60 cell line panel screen (SRB); type: cell-based, human
MALME-3M = assay: NCI 60 cell line panel screen (SRB); type: cell-based, human; conditions: MALME-3M (Melanoma)
MOLT-4 = test system: MOLT-4
Experimental: Growth Inhibition. […] The screening assay is performed on 96-well microtitre plates. Relatively high initial inoculation densities are used, in order to permit measurement of “time-zero” values and to enhance the screen's ability to detect and provide some differentiation between growth inhibition and cytotoxic response parameters. […] The inoculated microtitre plates are pre-incubated for 24 hours at 37° C. prior to drug additions. The five drug dilutions tested routinely range from 10^−4 to 10^−8 molar. Higher or lower concentration ranges may be selected on a non-routine basis if appropriate solubility and/or prior biological information or other screening data so dictate. Duplicate wells are prepared for all concentrations, (concentration is often denoted by placing brackets around a number); “time-zero” and “no drug” controls are also provided for each test. The minimum amount of compound required for a one-time evaluation in the routine screen can be calculated from the knowledge that each test requires a total of approximately 40 ml (0.04 liter) of cell culture medium containing the highest desired drug concentration. […] After a 48 hour incubation (37° C.) with the test compound, the cells are fixed in situ to the bottoms of the microtitre wells by addition of 50 μl of either 50% trichloroacetic acid (for adherent cell lines) or 80% trichloroacetic acid (for settled cell suspension lines), followed by incubation for 60 minutes at 4° C. The cellular protein in each well is assayed using a sulforhodamine B (SRB) stain procedure. Briefly, after discarding the supernatants, the microtitre plates are washed 5 times with deionized water and air-dried. […] Unbound SRB is removed by washing 5 times with 1% acetic acid. […] SRB is a bright pink anionic dye which, in dilute acetic acid, binds electrostatically to the basic amino acids of TCA-fixed cells. Cryopreserved master stocks of all the lines are maintained, and cultures used for screening are replaced from the master stock after no more than twenty passages in the screening laboratory. The cell line panel consists of 60 lines, organized into nine, disease-related subpanels including leukemia, non-small-cell lung cancer, colon, CNS, melanoma, ovarian, renal, prostate and breast cancers.
At this value the increase from time tzero, in the number or mass of cells in the test well is only 50% as much as the corresponding increase in the control well during this period of the experiment, see Table III. A drug effect of this intensity is interpreted as primary growth inhibition.
At this value the number or mass of cells in the well at the end of the experiment equals the number or mass of cells in the well at time tzero, see Table IV. A drug effect of this intensity is regarded as cytostasis.
At this value, the number or mass of cells in the test well at the end of the experiment is half that at time tzero, see Table V. This is interpreted as cytotoxicity.
Dose response curves, shown in the above mentioned Figures, are obtained by exposing various cancer cell lines to compounds having a known concentration ([log10M]), as discussed in detail above, and then plotting the percentage growth of each cell line for each concentration. […] Percentage growth is determined by dividing the number or mass of cells in the test well by the number or mass of cells in a control well. […] As discussed previously, the five drug dilutions routinely tested range from 10^−4 to […].

HL-60(TB) = assay: NCI 60 cell line panel screen (SRB); type: cell-based, human
MCF7 = assay: NCI 60 cell line panel screen (SRB); type: cell-based, human
SK-MEL-2 = assay: NCI 60 cell line panel screen (SRB); type: cell-based, human

Work on `C[C@@H]1CC[C@H]2[C@@H](C)C(=O)O[C@@H]3O[C@]4(C)CC[C@@H]1[C@]32OO4` [Artemisinin] yielded a Log10GI50 (HS 578T; Breast Cancer, HS 578T) of over −4.00, a Log10LC50 (HS 578T; HS 578T (Breast Cancer), LC50: PG=−50) of over −4.00 log10M and a Log10TGI50 (HS 578T; HS 578T (Breast Cancer), TGI: PG=0) of over −4.00 log10M. For the same molecule, the Log10LC50 (A549/ATCC; A549/ATCC (Non-Small Cell Lung Cancer), LC50: PG=−50) was over −4.00 log10M, the Log10TGI50 (A549/ATCC; A549/ATCC (Non-Small Cell Lung Cancer), TGI: PG=0) was over −4.00 log10M and the Log10GI50 (A549/ATCC; Non-Small Cell Lung Cancer, A549/ATCC) was −4.17. For the same molecule, the Log10LC50 (M14; M14 (Melanoma), LC50: PG=−50) was over −4.00 log10M, the Log10TGI50 (M14; M-14 (Melanoma), TGI: PG=0) was over −4.00 log10M and the Log10GI50 (KM12; Colon Cancer, KM12) was over −4.00. It also gave a Log10LC50 (KM12; KM12 (Colon Cancer), LC50: PG=−50) of over −4.00 log10M, a Log10TGI50 (KM12; KM12 (Colon Cancer), TGI: PG=0) of over −4.00 log10M and a Log10GI50 (TK-10; Renal Cancer, TK-10) of over −4.00. The Log10LC50 (TK-10; TK-10 (Renal Cancer), LC50: PG=−50) was over −4.00 log10M, the Log10TGI50 (TK-10; TK-10 (Renal Cancer), TGI: PG=0) was over −4.00 log10M and the Log10GI50 (UO-31; Renal Cancer, UO-31) was −4.06. It also gave a Log10LC50 (UO-31; UO-31 (Renal Cancer), LC50: PG=−50) of over −4.00 log10M, a Log10TGI50 (UO-31; UO-31 (Renal Cancer), TGI: PG=0) of over −4.00 log10M and a Log10LC50 (COLO 205; COLO 205 (Colon Cancer), LC50: PG=−50) of over −4.00 log10M. For the same molecule, the Log10TGI50 (COLO 205; COLO 205 (Colon Cancer), TGI: PG=0) was over −4.00 log10M, the Log10GI50 (COLO 205; Colon Cancer, COLO 205) was over −4.00 and the Log10GI50 (U251; CNS Cancer, U251) was over −4.00. The Log10LC50 (U251; U251 (CNS Cancer), LC50: PG=−50) was over −4.00 log10M, the Log10TGI50 (U251; U251 (CNS Cancer), TGI: PG=0) was over −4.00 log10M and the Log10LC50 (OVCAR-5; OVCAR-5 (Ovarian Cancer), LC50: PG=−50) was over −4.00 log10M. It also gave a Log10TGI50 (OVCAR-5; OVCAR-5 (Ovarian Cancer), TGI: PG=0) of over −4.00 log10M, a Log10GI50 (OVCAR-5; Ovarian Cancer, OVCAR-5) of over −4.00 and a Log10LC50 (MALME-3M; LC50: PG=−50) of over −4.00 log10M. It also gave a Log10TGI50 (MALME-3M; TGI: PG=0) of −4.06 log10M, a Log10GI50 (MOLT-4; Leukemia, MOLT-4) of −4.73 and a Log10LC50 (MOLT-4; MOLT-4 (Leukemia), LC50: PG=−50) of over −4.00 log10M. The Log10TGI50 (MOLT-4; MOLT-4 (Leukemia), TGI: PG=0) was over −4.00 log10M, the “concentration for cytotoxicity (percentage growth −50)” value (MOLT-4; human, 48 h) was “greater than 10^−4 M” and the Log10LC50 (HL-60(TB); HL-60(TB) (Leukemia), LC50: PG=−50) was over −4.00 log10M. For the same molecule, the Log10TGI50 (HL-60(TB); HL-60(TB) (Leukemia), TGI: PG=0) was over −4.00 log10M, the Log10GI50 (HL-60(TB); Leukemia, HL-60(TB)) was −4.26 and the Log10GI50 (MCF7; Breast Cancer, MCF7) was over −4.00. For the same molecule, the Log10LC50 (MCF7; MCF7 (Breast Cancer), LC50: PG=−50) was over −4.00 log10M, the Log10TGI50 (MCF7; MCF7 (Breast Cancer), TGI: PG=0) was over −4.00 log10M and the Log10LC50 (SK-MEL-2; SK-MEL2 (Melanoma), LC50: PG=−50) was over −4.00 log10M. The Log10TGI50 (SK-MEL-2; SK-MEL-2 (Melanoma), TGI: PG=0) was over −4.00 log10M.
